Changes are numbered by the printed parent chain.
Assays:
[1] = tested on: α-Gal A mutant form A29D; assay: α-Gal A activity in lysates of transfected HEK-293 cells ± migalastat (HEK assay); assay type: cell-based, human
Source text: (§1) Such mutations or variants are also referred to herein as “HEK assay amenable” mutations or variants.
(§2) The α-Gal A activity is expressed as the nmoles of free 4-MU released per milligram of protein per hour (nmol/mg/hr).

[2] = molecular target: T1, α-Gal A mutant form G360A (Homo sapiens, UniProt P06280, G360A); assay: as above; assay type: cell-based
T1 construct: expressed in transfected cells; host or cells: HEK-293
T1 sequence (P06280 32-429 G360A): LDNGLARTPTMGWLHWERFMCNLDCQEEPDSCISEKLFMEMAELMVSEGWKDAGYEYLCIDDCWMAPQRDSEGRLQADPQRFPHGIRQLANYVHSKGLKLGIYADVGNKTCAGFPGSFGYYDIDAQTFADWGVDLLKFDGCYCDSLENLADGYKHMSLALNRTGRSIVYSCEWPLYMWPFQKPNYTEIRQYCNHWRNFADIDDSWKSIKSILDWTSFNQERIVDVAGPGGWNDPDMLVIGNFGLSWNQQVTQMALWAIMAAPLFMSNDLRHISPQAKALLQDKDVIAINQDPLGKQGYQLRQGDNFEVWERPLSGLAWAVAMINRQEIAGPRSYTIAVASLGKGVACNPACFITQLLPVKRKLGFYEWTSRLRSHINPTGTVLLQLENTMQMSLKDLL
Procedure, shortened: (§3)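 Activity is reported as nmol of free 4-MU released per mg protein per hour (nmol/mg/hr).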

[3] = molecular target: T2, α-Gal A mutant form I303V (Homo sapiens, UniProt P06280, I303V); assay: as above; assay type: cell-based
T2 construct: expressed in transfected cells; host or cells: HEK-293
T2 sequence (P06280 32-429 I303V): T1 sequence (P06280 32-429 G360A) with I272V, A329G
Procedure, shortened: as §3

[4] = molecular target: T3, α-Gal A mutant form P259S (Homo sapiens, UniProt P06280, P259S); assay: as above; assay type: cell-based
T3 construct: expressed in transfected cells; host or cells: HEK-293
T3 sequence (P06280 32-429 P259S): T1 sequence (P06280 32-429 G360A) with P228S, A329G
Procedure, shortened: as §3

[5] = molecular target: T4, α-Gal A mutant form W209R (Homo sapiens, UniProt P06280, W209R); assay: as above; assay type: cell-based
T4 construct: expressed in transfected cells; host or cells: HEK-293
T4 sequence (P06280 32-429 W209R): T1 sequence (P06280 32-429 G360A) with W178R, A329G
Procedure, shortened: as §3

[6] = molecular target: T5, α-Gal A mutant form Y152N (Homo sapiens, UniProt P06280, Y152N); assay: as above; assay type: cell-based
T5 construct: expressed in transfected cells; host or cells: HEK-293
T5 sequence (P06280 32-429 Y152N): T1 sequence (P06280 32-429 G360A) with Y121N, A329G
Procedure, shortened: as §3

[7] = tested on: novel α-Gal A mutations A29D, R38S, N53Y, Y88C, V124G, I133F, A143V, Y152N, F159C, A160D, D165N, F169I, L180V, D182G, R196T, W209R, A257T, P259S, G271A, S276T …; assay: HEK assay, amenability of the novel mutations taken together; assay type: cell-based, human; details: all 31 novel mutations; criteria: relative increase ≥1.20-fold and absolute increase ≥3.0% wild-type at 10 μM migalastat
Source text: as §1, §2

[8] = 10 μM migalastat minus baseline
[9] = HEK-293 lysates, 10 μM migalastat 5 days, mean ± SEM

OC[C@H]1NC[C@H](O)[C@@H](O)[C@H]1O [migalastat, (2R,3S,4R,5S)-2-(hydroxymethyl) piperdine-3,4,5-triol]
Absolute increase (% WT) [1, 8]: 5.1 % WT
Relative increase ([1]; 10 μM migalastat ÷ baseline): 1.35
10 μM migalastat α-Gal A activity [1, 9]: 6877 ± 474 nmol/mg/h
10 μM migalastat α-Gal A activity (% WT) [1, 9]: 20.3 ± 1.1 % WT
Absolute increase (% WT) [2, 8]: 7.5 % WT
Relative increase ([2]; 10 μM migalastat ÷ baseline): 1.28
10 μM migalastat α-Gal A activity [2, 9]: 13443 ± 1048 nmol/mg/h
10 μM migalastat α-Gal A activity (% WT) [2, 9]: 31.3 ± 2.6 % WT
Absolute increase (% WT) [3, 8]: 35 % WT
Relative increase ([3]; 10 μM migalastat ÷ baseline): 1.91
10 μM migalastat α-Gal A activity [3, 9]: 28958 ± 3153 nmol/mg/h
10 μM migalastat α-Gal A activity (% WT) [3, 9]: 73.2 ± 8.8 % WT
Absolute increase (% WT) [4, 8]: 35.5 % WT
Relative increase ([4]; 10 μM migalastat ÷ baseline): 1.86
10 μM migalastat α-Gal A activity [4, 9]: 28621 ± 3141 nmol/mg/h
10 μM migalastat α-Gal A activity (% WT) [4, 9]: 79.8 ± 4.8 % WT
Absolute increase (% WT) [5, 8]: 17.5 % WT
Relative increase ([5]; 10 μM migalastat ÷ baseline): 1.25
10 μM migalastat α-Gal A activity [5, 9]: 28729 ± 1293 nmol/mg/h
10 μM migalastat α-Gal A activity (% WT) [5, 9]: 81.1 ± 4.6 % WT
Absolute increase (% WT) [6, 8]: 25.9 % WT
Relative increase ([6]; 10 μM migalastat ÷ baseline): 1.97
10 μM migalastat α-Gal A activity [6, 9]: 18554 ± 1297 nmol/mg/h
10 μM migalastat α-Gal A activity (% WT) [6, 9]: 51.6 ± 2.2 % WT
in vitro response to incubation with migalastat [7]: met amenability criteria

From patent US20230136297A1, “Methods Of Treating Fabry Disease In Patients Having A Mutation In The GLA Gene” (Amicus Therapeutics, Inc., priority 2020, published 2023)
